Target: T1, LXRα (Homo sapiens, UniProt Q13133)
T1 sequence (Q13133 1-447): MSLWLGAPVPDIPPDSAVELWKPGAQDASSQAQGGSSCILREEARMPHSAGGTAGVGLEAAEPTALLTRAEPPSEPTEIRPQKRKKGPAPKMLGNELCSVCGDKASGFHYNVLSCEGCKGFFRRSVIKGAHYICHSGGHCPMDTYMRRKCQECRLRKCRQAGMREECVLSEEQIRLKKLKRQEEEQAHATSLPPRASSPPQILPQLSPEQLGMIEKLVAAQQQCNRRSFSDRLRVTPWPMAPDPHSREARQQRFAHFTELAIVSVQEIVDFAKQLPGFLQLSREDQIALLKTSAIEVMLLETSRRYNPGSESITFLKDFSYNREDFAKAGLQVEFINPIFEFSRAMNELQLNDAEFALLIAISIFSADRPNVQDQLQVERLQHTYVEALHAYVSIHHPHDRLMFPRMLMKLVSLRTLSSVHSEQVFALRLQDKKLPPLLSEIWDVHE
T1 sequence (P19793 1-462 partner): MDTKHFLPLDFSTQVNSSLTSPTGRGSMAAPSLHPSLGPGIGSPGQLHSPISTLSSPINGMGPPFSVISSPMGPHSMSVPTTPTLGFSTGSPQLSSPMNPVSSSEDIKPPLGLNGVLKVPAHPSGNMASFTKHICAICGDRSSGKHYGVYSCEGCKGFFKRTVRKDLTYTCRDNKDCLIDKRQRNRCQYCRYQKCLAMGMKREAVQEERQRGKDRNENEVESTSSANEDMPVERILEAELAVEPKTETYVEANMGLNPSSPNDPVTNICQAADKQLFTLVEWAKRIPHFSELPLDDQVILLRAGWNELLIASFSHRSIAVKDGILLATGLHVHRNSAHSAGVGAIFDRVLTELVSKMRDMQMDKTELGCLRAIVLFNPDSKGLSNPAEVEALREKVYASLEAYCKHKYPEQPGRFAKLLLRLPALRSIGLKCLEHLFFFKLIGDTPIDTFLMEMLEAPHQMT
Assay: LXRα cotransfection assay with TK-LXREx3-LUC reporter in CV-1 cells
Format: cell-based
Set-up: expressed in transfected cells; host or cells: CV-1 monkey kidney cells
Protocol: FIG. 1 Human LXRα is activated by gonad sterols. (A) Transactivation of LXRα ligand binding domain (LBD) with testis extract. CV-1 cells were cotransfected with a GAL4 responsive luciferase reporter plasmid and an expression plasmid encoding no receptor or a chimeric receptor composed of the GAL4 DNA binding domain fused to the LXRα ligand binding domain (LBD) (GAL4-LXRα)^3. After transfection, cells were treated with ethanol (ETOH) or 1% of the concentrated testis extract. (B) Transactivation of LXRα with follicular fluid meiosis activating substance (FF-MAS). CV-1 cells were cotransfected with an LXRα responsive reporter plasmid and the receptor expression plasmids for LXRα alone or with RXRα. After transfection, cells were treated with ETOH or […] FF-MAS.
FIG. 2 LXRα is activated by a specific subset of oxysterols. (A) Specificity of LXRα activators. Shown is a representative group from 70 compounds evaluated for LXRα activity (10 μM) in cotransfection assays as described in FIG. 1B. […] (B) The the structure-activity relationship of LXRα activators. Data compiled from FIG. 2A and other experiments (not shown) reveal that the position of the hydroxyl on the cholesterol backbone is a determinant of LXRα activity. […] Dose response curves for LXRα activators were generated in CV-1 cell cotransfection assays as described in FIG. 1B.
Organic extraction of breeding bull testis was performed as described^6. Briefly, 12 grams of lyophilized testis was extracted with N-heptane and lipids were concentrated by roto-evaporation. Aliquots representing 1% of this material were assayed. FF-MAS was synthesized as described^18. Transient transfections in CV-1 monkey kidney cells were performed in triplicate in 48-well plates as described^3 with media containing 5% cabosil-treated calf bovine serum.
Transfections were performed in FIG. 1A using 80 ng of TK-MH100x4-LUC reporter and 30 ng of CMX-GAL4-hLXRα expression plasmids per well; and in FIG. 1B using 50 ng of TK-LXREx3-LUC reporter and 25 ng of CMX-hLXRa alone or with 25 ng CMX-hRXRa expression plasmids per well. Candidate ligands were dissolved in ethanol and added 8 hours post-transfection. As an internal standard, 50 ng of CMX-β gal was included in all transfections. All plasmid constructs and determinations of luciferase and β-galactosidase activities have been described^3. To construct CMX-LXRα, the hLXRα cDNA insert was excised from the plasmid pXR2DRV (Willy, et al., 1995, Genes Dev. 9: 1033-1045) with Kpnl and BamHI and was ligated into the expression vector CMX. CMX-βgal was constructed by ligating the β-galactosidase gene into the expression vector CMX. Chimeric Gal4-receptor expression plasmid (CMX-GAL4-LXRα) was constructed by first ligating the GAL4 portion of pSC424 (Sadowski, I. and M. Ptashne, 1989, Nucleic Acids Res. 19: 7539-7530) into the HindIII/SacI sites of pCMX (Umesono, et al., 1991, Cell 65: 1255-1266) to create pCMX-GAL4. This vector contains the CMV promoter fused to the coding sequence for GAL4 (1-147), followed by inframe polylinker cloning sites and translational stop codons. The cDNAs encoding the ligand-binding domain (LBD) of hLXRα (amino acids 166-447) was then ligated into the polylinker to create CMX-GAL4-LXRα.
Reporter plasmids for these studies were constructed by ligating the appropriate oligonucleotides into the HindIII site of the TK-LUC vector to create TK-LXREx3-LUC, TK-MH100x4-LUC (Kang, T., et al., 1993, J. Biol Chem. 268: 9629-9635). The sense strand of the LXRE oligonucleotide used to construct the reporter plasmid TK-LXREx3-LUC was 5′agctt[…]3′ (SEQ. ID. NO. 1). All constructs were verified by sequencing. Data are presented as relative light units (RLUs) and represent the mean of triplicate assays±standard error. […]

CC(C)CC[C@@H](O)[C@@H](C)[C@H]1CC[C@H]2[C@@H]3CC=C4C[C@@H](O)CC[C@]4(C)[C@H]3CC[C@]12C [22(R)-hydroxycholesterol]
EC50: 1500 nM
